# Measured values published in PubChem BioAssay (NCI).
#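 Interpolation was linear, between the two tested concentrations surrounding the appropriate level; five concentrations were tested over 48 hours in 96-well plates. TGI denotes the concentration required for complete inhibition of growth.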
# What was measured:
# Experiment in all cases: NCI-60 cell line screen, 48 h
# DU-145 prostate = tested on: DU-145 prostate
# SF-295 CNS = tested on: SF-295 CNS
# RXF 393 renal = tested on: RXF 393 renal
# SK-OV-3 ovarian = tested on: SK-OV-3 ovarian
# UO-31 renal = tested on: UO-31 renal
# RPMI-8226 leukemia = tested on: RPMI-8226 leukemia
# HOP-62 NSCLC = tested on: HOP-62 NSCLC
# SNB-19 CNS = tested on: SNB-19 CNS
# A498 renal = tested on: A498 renal
# HCC-2998 colon = tested on: HCC-2998 colon
# MDA-N = tested on: MDA-N
# T-47D breast = tested on: T-47D breast
# OVCAR-3 ovarian = tested on: OVCAR-3 ovarian
# SF-539 CNS = tested on: SF-539 CNS
# MDA-MB-231 breast = tested on: MDA-MB-231 breast
# OVCAR-5 ovarian = tested on: OVCAR-5 ovarian
# U251 CNS = tested on: U251 CNS
# NCI-H460 lung = tested on: NCI-H460 lung
# ACHN renal = tested on: ACHN renal
# EKVX NSCLC = tested on: EKVX NSCLC
# K-562 leukemia = tested on: K-562 leukemia
# SNB-75 CNS = tested on: SNB-75 CNS
# LOX IMVI melanoma = tested on: LOX IMVI melanoma
# COLO 205 colon = tested on: COLO 205 colon
# TK-10 renal = tested on: TK-10 renal
# MDA-MB-435 = tested on: MDA-MB-435
# KM12 colon = tested on: KM12 colon
# OVCAR-4 ovarian = tested on: OVCAR-4 ovarian
# HL-60(TB) leukemia = tested on: HL-60(TB) leukemia
# NCI/ADR-RES ovarian = tested on: NCI/ADR-RES ovarian
# A549 NSCLC = tested on: A549 NSCLC
# MOLT-4 leukemia = tested on: MOLT-4 leukemia
# OVCAR-8 ovarian = tested on: OVCAR-8 ovarian
# 786-0 renal = tested on: 786-0 renal
# UACC-257 melanoma = tested on: UACC-257 melanoma
# HCT-116 colon = tested on: HCT-116 colon
# UACC-62 melanoma = tested on: UACC-62 melanoma
# MCF7 breast = tested on: MCF7 breast
# SK-MEL-28 melanoma = tested on: SK-MEL-28 melanoma
# HCT-15 colon = tested on: HCT-15 colon
# SF-268 CNS = tested on: SF-268 CNS
# BT-549 breast = tested on: BT-549 breast
# CAKI-1 renal = tested on: CAKI-1 renal
# IGROV1 ovarian = tested on: IGROV1 ovarian
# MALME-3M melanoma = tested on: MALME-3M melanoma
# CCRF-CEM leukemia = tested on: CCRF-CEM leukemia
# NCI-H226 lung = tested on: NCI-H226 lung
# SW-620 colon = tested on: SW-620 colon
# SK-MEL-5 melanoma = tested on: SK-MEL-5 melanoma
# NCI-H23 lung = tested on: NCI-H23 lung
# SN12C renal = tested on: SN12C renal
# HS 578T breast = tested on: HS 578T breast
# HT29 colon = tested on: HT29 colon
# M14 melanoma = tested on: M14 melanoma
# HOP-92 NSCLC = tested on: HOP-92 NSCLC
# SK-MEL-2 melanoma = tested on: SK-MEL-2 melanoma
# PC-3 prostate = tested on: PC-3 prostate
# SR leukemia = tested on: SR leukemia
# NCI-H522 lung = tested on: NCI-H522 lung
smiles,measurement,setting,value
O=c1c2n[nH]nc2nc2n1CC(c1ccccc1)S2 (stereo not drawn),TGI,DU-145 prostate,> 100 µM
same,TGI,SF-295 CNS,> 100 µM
same,TGI,RXF 393 renal,94.9 µM
same,TGI,SK-OV-3 ovarian,> 100 µM
same,TGI,UO-31 renal,> 100 µM
same,TGI,RPMI-8226 leukemia,> 100 µM
same,TGI,HOP-62 NSCLC,> 100 µM
same,TGI,SNB-19 CNS,> 100 µM
same,TGI,A498 renal,> 100 µM
same,TGI,HCC-2998 colon,> 100 µM
same,TGI,MDA-N,> 100 µM
same,TGI,T-47D breast,> 100 µM
same,TGI,OVCAR-3 ovarian,> 100 µM
same,TGI,SF-539 CNS,> 100 µM
same,TGI,MDA-MB-231 breast,> 100 µM
same,TGI,OVCAR-5 ovarian,> 100 µM
same,TGI,U251 CNS,> 100 µM
same,TGI,NCI-H460 lung,> 100 µM
same,TGI,ACHN renal,> 100 µM
same,TGI,EKVX NSCLC,> 100 µM
same,TGI,K-562 leukemia,> 100 µM
same,TGI,SNB-75 CNS,> 100 µM
same,TGI,LOX IMVI melanoma,> 100 µM
same,TGI,COLO 205 colon,> 100 µM
same,TGI,TK-10 renal,> 100 µM
same,TGI,MDA-MB-435,> 100 µM
same,TGI,KM12 colon,> 100 µM
same,TGI,OVCAR-4 ovarian,> 100 µM
same,TGI,HL-60(TB) leukemia,> 100 µM
same,TGI,NCI/ADR-RES ovarian,> 100 µM
same,TGI,A549 NSCLC,> 100 µM
same,TGI,MOLT-4 leukemia,> 100 µM
same,TGI,OVCAR-8 ovarian,> 100 µM
same,TGI,786-0 renal,> 100 µM
same,TGI,UACC-257 melanoma,> 100 µM
same,TGI,HCT-116 colon,> 100 µM
same,TGI,UACC-62 melanoma,> 100 µM
same,TGI,MCF7 breast,> 100 µM
same,TGI,SK-MEL-28 melanoma,> 100 µM
same,TGI,HCT-15 colon,> 100 µM
same,TGI,SF-268 CNS,> 100 µM
same,TGI,BT-549 breast,> 100 µM
same,TGI,CAKI-1 renal,77.6 µM
same,TGI,IGROV1 ovarian,> 100 µM
same,TGI,MALME-3M melanoma,> 100 µM
same,TGI,CCRF-CEM leukemia,> 100 µM
same,TGI,NCI-H226 lung,> 100 µM
same,TGI,SW-620 colon,> 100 µM
same,TGI,SK-MEL-5 melanoma,> 100 µM
same,TGI,NCI-H23 lung,> 100 µM
same,TGI,SN12C renal,> 100 µM
CC(NC(=O)OC(C)(C)C)C(=O)NC(Cc1ccccc1)C(=O)NCC(=O)Oc1c(Cl)c(Cl)c(Cl)c(Cl)c1Cl (stereo not drawn),TGI,RXF 393 renal,35.4 µM
same,TGI,UO-31 renal,33.9 µM
same,TGI,RPMI-8226 leukemia,54.9 µM
same,TGI,HOP-62 NSCLC,37.4 µM
same,TGI,HS 578T breast,> 100 µM
same,TGI,SNB-19 CNS,> 100 µM
same,TGI,A498 renal,47.8 µM
same,TGI,HCC-2998 colon,30.6 µM
same,TGI,MDA-N,90.6 µM
same,TGI,MDA-MB-231 breast,36 µM
same,TGI,HT29 colon,73.2 µM
same,TGI,M14 melanoma,73.8 µM
same,TGI,OVCAR-5 ovarian,42.8 µM
same,TGI,U251 CNS,46.7 µM
same,TGI,NCI-H460 lung,63.3 µM
same,TGI,ACHN renal,67.6 µM
same,TGI,EKVX NSCLC,48.7 µM
same,TGI,K-562 leukemia,> 100 µM
same,TGI,SNB-75 CNS,> 100 µM
same,TGI,COLO 205 colon,70.9 µM
same,TGI,TK-10 renal,71.5 µM
same,TGI,KM12 colon,> 100 µM
same,TGI,HL-60(TB) leukemia,53.3 µM
same,TGI,HOP-92 NSCLC,38.3 µM
same,TGI,SK-MEL-2 melanoma,73.1 µM
same,TGI,A549 NSCLC,48.1 µM
same,TGI,MOLT-4 leukemia,59.3 µM
same,TGI,OVCAR-8 ovarian,43.9 µM
same,TGI,786-0 renal,46.4 µM
same,TGI,UACC-257 melanoma,54.5 µM
same,TGI,PC-3 prostate,49.4 µM
same,TGI,HCT-116 colon,43.9 µM
same,TGI,UACC-62 melanoma,50.4 µM
same,TGI,MCF7 breast,89.6 µM
same,TGI,SR leukemia,64.7 µM
same,TGI,SK-MEL-28 melanoma,71.1 µM
same,TGI,BT-549 breast,69.3 µM
same,TGI,IGROV1 ovarian,44.2 µM
same,TGI,MALME-3M melanoma,49.2 µM
same,TGI,NCI-H226 lung,43.5 µM
same,TGI,SW-620 colon,47 µM
same,TGI,SK-MEL-5 melanoma,27.4 µM
same,TGI,NCI-H23 lung,40.7 µM
same,TGI,SN12C renal,30.4 µM
O=C1N(CN2CCOCC2)CN(CN2CCOCC2)C(=O)N1Cc1ccc(CN2C(=O)N(CN3CCOCC3)CN(CN3CCOCC3)C2=O)cc1,TGI,DU-145 prostate,> 100 µM
same,TGI,NCI-H522 lung,> 100 µM
same,TGI,SF-295 CNS,> 100 µM
same,TGI,SK-OV-3 ovarian,> 100 µM
same,TGI,UO-31 renal,> 100 µM
same,TGI,RPMI-8226 leukemia,89.5 µM
same,TGI,HOP-62 NSCLC,> 100 µM
same,TGI,HS 578T breast,> 100 µM
same,TGI,SNB-19 CNS,> 100 µM
same,TGI,A498 renal,> 100 µM
same,TGI,HCC-2998 colon,> 100 µM
same,TGI,MDA-N,> 100 µM
same,TGI,T-47D breast,> 100 µM
same,TGI,OVCAR-3 ovarian,> 100 µM
same,TGI,SF-539 CNS,> 100 µM
same,TGI,MDA-MB-231 breast,> 100 µM
same,TGI,HT29 colon,> 100 µM
same,TGI,M14 melanoma,> 100 µM
same,TGI,OVCAR-5 ovarian,> 100 µM
same,TGI,U251 CNS,> 100 µM
same,TGI,NCI-H460 lung,> 100 µM
same,TGI,ACHN renal,> 100 µM
same,TGI,EKVX NSCLC,> 100 µM
same,TGI,SNB-75 CNS,> 100 µM
same,TGI,LOX IMVI melanoma,76.4 µM
same,TGI,COLO 205 colon,> 100 µM
same,TGI,TK-10 renal,> 100 µM
same,TGI,MDA-MB-435,> 100 µM
same,TGI,KM12 colon,> 100 µM
same,TGI,OVCAR-4 ovarian,> 100 µM
same,TGI,HL-60(TB) leukemia,> 100 µM
same,TGI,HOP-92 NSCLC,> 100 µM
same,TGI,SK-MEL-2 melanoma,39.8 µM
same,TGI,NCI/ADR-RES ovarian,> 100 µM
same,TGI,A549 NSCLC,> 100 µM
same,TGI,MOLT-4 leukemia,> 100 µM
same,TGI,OVCAR-8 ovarian,> 100 µM
same,TGI,786-0 renal,> 100 µM
same,TGI,UACC-257 melanoma,> 100 µM
same,TGI,PC-3 prostate,> 100 µM
same,TGI,HCT-116 colon,> 100 µM
same,TGI,UACC-62 melanoma,85.4 µM
same,TGI,MCF7 breast,> 100 µM
same,TGI,SR leukemia,> 100 µM
same,TGI,SK-MEL-28 melanoma,> 100 µM
same,TGI,HCT-15 colon,> 100 µM
same,TGI,SF-268 CNS,> 100 µM
same,TGI,CAKI-1 renal,> 100 µM
same,TGI,IGROV1 ovarian,> 100 µM
same,TGI,CCRF-CEM leukemia,> 100 µM
same,TGI,NCI-H226 lung,> 100 µM
same,TGI,SW-620 colon,> 100 µM
same,TGI,SK-MEL-5 melanoma,> 100 µM
same,TGI,NCI-H23 lung,> 100 µM
same,TGI,SN12C renal,> 100 µM
Cc1ccc(S(=O)(=O)N/N=C2\CC(C)OC3=C2CCCCCC3)cc1 (stereo not drawn),TGI,DU-145 prostate,37.6 µM
same,TGI,SF-295 CNS,35.9 µM
same,TGI,RXF 393 renal,32.4 µM
same,TGI,SK-OV-3 ovarian,62.8 µM
same,TGI,UO-31 renal,31.2 µM
same,TGI,RPMI-8226 leukemia,82.5 µM
same,TGI,HOP-62 NSCLC,35.1 µM
same,TGI,HS 578T breast,47 µM
same,TGI,SNB-19 CNS,44.1 µM
same,TGI,A498 renal,29.7 µM
same,TGI,MDA-N,> 100 µM
same,TGI,T-47D breast,> 100 µM
same,TGI,OVCAR-3 ovarian,36 µM
same,TGI,SF-539 CNS,38.9 µM
same,TGI,MDA-MB-231 breast,39.4 µM
same,TGI,HT29 colon,34.9 µM
same,TGI,M14 melanoma,36.2 µM
same,TGI,OVCAR-5 ovarian,37.8 µM
same,TGI,NCI-H460 lung,> 100 µM
same,TGI,ACHN renal,32.8 µM
same,TGI,EKVX NSCLC,30.4 µM
same,TGI,K-562 leukemia,> 100 µM
same,TGI,SNB-75 CNS,52.4 µM
same,TGI,LOX IMVI melanoma,33.7 µM
same,TGI,COLO 205 colon,37.1 µM
same,TGI,TK-10 renal,37.2 µM
same,TGI,MDA-MB-435,34.6 µM
same,TGI,KM12 colon,37.4 µM
same,TGI,OVCAR-4 ovarian,35.6 µM
same,TGI,HL-60(TB) leukemia,54.6 µM
same,TGI,HOP-92 NSCLC,36.7 µM
same,TGI,NCI/ADR-RES ovarian,44.7 µM
same,TGI,A549 NSCLC,34.4 µM
same,TGI,MOLT-4 leukemia,55.9 µM
same,TGI,OVCAR-8 ovarian,45.2 µM
same,TGI,786-0 renal,32.3 µM
same,TGI,UACC-257 melanoma,36.6 µM
same,TGI,PC-3 prostate,38.9 µM
same,TGI,HCT-116 colon,30.4 µM
same,TGI,UACC-62 melanoma,30.6 µM
same,TGI,MCF7 breast,38.2 µM
same,TGI,SR leukemia,60.4 µM
same,TGI,SK-MEL-28 melanoma,39.3 µM
same,TGI,SF-268 CNS,38.4 µM
same,TGI,CAKI-1 renal,44.6 µM
same,TGI,IGROV1 ovarian,38.2 µM
same,TGI,MALME-3M melanoma,39.5 µM
same,TGI,CCRF-CEM leukemia,> 100 µM
same,TGI,NCI-H226 lung,39 µM
same,TGI,SW-620 colon,36.4 µM
same,TGI,SK-MEL-5 melanoma,31.9 µM
same,TGI,NCI-H23 lung,41.6 µM
same,TGI,SN12C renal,34.4 µM
